According to US8883836B2, “Solid forms of bendamustine hydrochloride” (Cephalon, Inc., priority 2008, dated 2014):

Columns and labels:
[1] = Gravimetric Vapor Sorption (GVS); format: physicochemical; settings: for solid form by XRPD re-analysis after GVS humidity cycles: reanalysis under ambient conditions, hydrochloride
Method: Gravimetric Vapor Sorption (GVS)
Sorption isotherms were obtained using a Hiden IGASorp moisture sorption analyser, controlled by CFRSorp software. The sample temperature was maintained at 25° C. by a Huber recirculating water bath. The humidity was controlled by mixing streams of dry and wet nitrogen, with a total flow rate of 250 ml·min-1. The relative humidity was measured by a calibrated Vaisala RH probe (dynamic range of 0-95% RH), located near the sample. The weight change, (mass relaxation) of the sample as a function of % RH was constantly monitored by themicrobalance (accuracy ±0.001 mg). Typically 1-3 mg of sample was placed in a tared mesh stainless steel basket under ambient conditions. The sample was loaded and unloaded at 40% RH and 25° C. (typical room conditions). A moisture sorption isotherm was performed as outlined below (2 scans giving 1 complete cycle). The standard isotherm was performed at 25° C. at 10% RH intervals over a 0-90% RH range.
The software uses a least squares minimization procedure together with a model of the mass relaxation, to predict an asymptotic value. The measured mass relaxation value must be within 5% of that predicted by the software before the next % RH value is selected. The minimum equilibration time was set to 1 hour and the maximum to 4 hours.

[2] = Storage of solid forms under temperature/humidity or ambient conditions, XRPD re-analysis; format: physicochemical; settings: for change on storage: 24 hours under ambient conditions
[3] = Maturation Experiment (slurry of Form 1 in solvents, XRPD); format: physicochemical; settings: slurry 48 hours, 4 hour periods at 50 C and ambient
Method: Approximately 10 mg of Form 1 bendamustine hydrochloride was slurried in the solvents list in Table 3. The slurries were shaken for 48 hours with alternating 4 hour periods at 50 C and ambient temperature. Any solid material was then isolated by filtration and analyzed by XRPD. Solutions were allowed to evaporate.

[4] = Light Stability (Suntest Light Box); format: physicochemical; settings: for change in crystallinity and purity during light stress test: 25° C.; for Purity (%): HPLC
Method: Light Stability of Bendamustine Hydrochloride
Samples of Form 1 and Form 2 of Bendamustine Hydrochloride were stressed in a Suntest Light Box with a light intensity of 250 watts/m2 for 1 week with the black body temperature set to 25° C. A blank of each sample, wrapped in foil for protection, was also included in the experiment. After the experiment, samples were analyzed by XRPD and the purity was determined by HPLC.

[5] = Stability of Forms 1 and 2 (temperature/humidity storage, XRPD); format: physicochemical; settings: for purity after storage: 4° C./87% RH (5) and 60° C./75% RH (13) for 6 weeks; for kinetic stability on storage: 6 weeks at 4° C./34 to 76% RH, 25° C./43 to 75% RH and 60° C./11 to 75% RH
Method: Stability of Forms 1 and 2 of Bendamustine Hydrochloride
10 mg of bendamustine hydrochloride Form 1 (A), bendamustine hydrochloride Form 2 (B), and a 1:1 mixture of Forms 1 and 2 (C) were stored under the conditions listed in Table 7. Samples were analyzed by XRPD at 1 day, 2 week, and 6 week time points. […] The rate of this conversion appears to increase with temperature. The purity of Forms 1 and 2 after storage at 4° C./87% RH (5) and 60° C./75% RH (13) for 6 weeks was measured.

[6] = Log P Determination (potentiometric titration, octanol:ISA water); format: physicochemical
From the text: Data were collected by potentiometric titration on a Sirius GlpKa instrument using three ratios of octanol:ionic-strength adjusted (ISA) water to generate Log P, Log Pion, and Log D values. The data were refined using Refinement Pro software v1.0. Prediction of Log P values was made using ACD v9 and Syracuse KOWWIN v1.67 software.

[7] = Preparation of solutions: solubility of Form 1 in solvents; settings: for Volume Added: 50 mg Form 1, aliquots with heating to 50° C. until clear solution
Method: Preparation of Solutions of Bendamustine Hydrochloride
50 mg of bendamustine hydrochloride Form 1 was weighed into a screw-top vial. Solvent was added in aliquots (with heating to 50° C.) until a clear solution was obtained.

[8] = pKa Determination (Sirius GlpKa, UV); format: physicochemical; settings: by UV in aqueous conditions, 25° C.
Method: pKa Determination and Prediction
Data were collected on a Sirius GlpKa instrument with a D-PAS attachment. Measurements were made at 25° C. in aqueous solution by UV. The compound was initially dissolved in DMSO at 5 mg/ml of which 50 μl (0.25 mg) was used for the titration from pH 1.3 to 9.0. The titration media was ionic-strength adjusted (ISA) with 0.15 M KCl (aq). The data were refined using Refinement Pro software v1.0. Prediction of pKa values was made using ACD pKa prediction software v9.

[9] = Thermodynamic Aqueous Solubility by HPLC; format: physicochemical
Method: Thermodynamic Aqueous Solubility by HPLC
Aqueous solubility was determined by suspending sufficient compound in 0.25 ml of water to give a maximum final concentration of ≧10 mg·ml^−1 of the parent free-form of the compound. The suspension was equilibrated at 25° C. for 24 hours (unless otherwise stated) after which the pH was measured. The suspension was then filtered through a glass fibre C filter into a 96 well plate. The filtrate was then diluted by a factor of 100 times. Quantitation was by HPLC with reference to a standard solution of approximately 0.1 mg·ml-1 in DMSO. Different volumes of the standard, diluted and undiluted sample solutions were injected. The solubility was calculated using the peak areas determined by integration of the peak found at the same retention time as the principal peak in the standard injection.

[10] = 1 week at 40° C./75% RH, hydrochloride
[11] = 250 watts/m2, 1 week, hydrochloride
[12] = blank wrapped in foil, 1 week in light box
[13] = light stressed, 250 watts/m2, 1 week, hydrochloride

With `Cl.Cn1c(CCCC(=O)O)nc2cc(N(CCCl)CCCl)ccc21` [Amorphous bendamustine hydrochloride, bendamustine hydrochloride] the “solid form by XRPD re-analysis after GVS humidity cycles” value (from here on “solid form by XRPD re-analysis”) [1] was “converted to Form 2”, the “change on storage (XRPD)” value [2, 10] was “partial crystallization occurred” and the change on storage ([2]; hydrochloride) was “became gummy”. For the same molecule, the hygroscopicity ([2]; inferred from 24 hours under ambient conditions) was “hygroscopic”.
In the case of `Cl.Cn1c(CCCC(=O)O)nc2cc(N(CCCl)CCCl)ccc21` [Form 1, bendamustine hydrochloride], the “XRPD Analysis after maturation” value ([3]; Acetone) is reported as “Form 1”, the “XRPD Analysis after maturation” value ([3]; Acetonitrile) is reported as “Form 1” and the “XRPD Analysis after maturation” value ([3]; Anisole) is reported as “Form 1”. For the same molecule, the “XRPD Analysis after maturation” value ([3]; DCM) was “Form 1”, the “XRPD Analysis after maturation” value ([3]; DIPE) was “Form 1” and the “XRPD Analysis after maturation” value ([3]; Diethyl ether) was “Form 1”. The “XRPD Analysis after maturation” value ([3]; Dioxane) was “Form 1”, the “XRPD Analysis after maturation” value ([3]; Ethanol) was “Form 1” and the “XRPD Analysis after maturation” value ([3]; Ethyl acetate) was “Form 1”. The “XRPD Analysis after maturation” value ([3]; Heptane) was “Form 1”, the “XRPD Analysis after maturation” value ([3]; IPA) was “Form 1” and the “XRPD Analysis after maturation” value ([3]; Isopropyl acetate) was “Form 1”. The “XRPD Analysis after maturation” value ([3]; MIBK) was “Form 1”, the “XRPD Analysis after maturation” value ([3]; Methyl acetate) was “Form 1” and the “XRPD Analysis after maturation” value ([3]; Nitromethane) was “Form 1”. The “XRPD Analysis after maturation” value ([3]; TBME) was “Form 1”, the “XRPD Analysis after maturation” value ([3]; THF) was “Form 1” and the “XRPD Analysis after maturation” value ([3]; Toluene) was “Form 1”. The “XRPD Analysis after maturation” value ([3]; Water) was “degradant”, the “change in crystallinity and purity during light stress test” value [4, 11] was “only a slight decrease in purity” and the “stability to degradation in light” value ([4]; as compared to Form 2) was “more stable to degradation in light”. The XRPD [4, 12] was “No change”, the “Purity (%)” value ([4]; blank wrapped in foil, 1 week in light box, listed as Form 1 blank, hydrochloride) was 97.3% and the “Purity (%)” value [4, 13] was 95.9%. The XRPD [4, 13] was “No change (sample brown in colour)”, the purity after storage [5] was “No large purity decreases” and the “kinetic stability on storage” value [5] was “kinetically stable”. For the same molecule, the “form conversion on storage at high humidity” value ([5]; 60° C./95% RH, 25° C. 94% RH and possibly 4° C./88% RH for 6, 6 and 2 weeks respectively) was “conversion of Form 1 to 2”, the “form conversion under high humidity conditions” value ([5]; ~90% RH, rate appears to increase with temperature) was “conversion of Form 1 of bendamustine hydrochloride to Form 2 was observed” and the LogP ([6]; octanol:ISA water) was 1.10. For the same molecule, the LogD ([6]; pH7.4) was 0.68, the hygroscopicity ([1]; GVS, 0 to 90% RH) was “low hygroscopicity” and the “weight increase (hygroscopicity)” value ([1]; between 0 and 90% relative humidity (RH)) was 0.7%. For the same molecule, the “solid form by XRPD re-analysis” value [1] was “did not lead to a significant change in XRPD pattern”, the “Solution Obtained?” value ([7]; Acetic acid, 50 mg in 1 ml) was “Yes (50° C.)” and the “Volume Added” value ([7]; Acetic acid) was 1000 µL. The “Solution Obtained?” value ([7]; DMA, 50 mg in 500 μl) was “Yes (50° C.)”, the “Volume Added” value ([7]; DMA) was 500 µL and the “Solution Obtained?” value ([7]; DMF, 50 mg in 500 μl) was “Yes (50° C.)”. The “Volume Added” value ([7]; DMF) was 500 µL, the “Solution Obtained?” value ([7]; DMSO, 50 mg in 100 μl) was “Yes (50° C.)” and the “Volume Added” value ([7]; DMSO) was 100 µL. The “Solution Obtained?” value ([7]; Ethanol, 50 mg in 1 ml) was “Yes (50° C.)”, the “Volume Added” value ([7]; Ethanol) was 1000 µL and the “Solution Obtained?” value ([7]; Formamide, 50 mg in 1 ml) was “Yes (50° C.)”. The “Volume Added” value ([7]; Formamide) was 1000 µL, the “Solution Obtained?” value ([7]; Methanol, 50 mg in 100 μl) was “Yes (50° C.)” and the “Volume Added” value ([7]; Methanol) was 100 µL. For the same molecule, the “pKa (Acid)” value [8] was 4.17, the “solution pH” value ([9]; saturated aqueous solution of the solubility experiment) was 2.16 and the “degradation of sample in aqueous solubility experiment” value ([9]; water) was “significant degradation occurred”. For the same molecule, the aqueous solubility ([9]; water, 25° C., 24 hours, significant degradation occurred) was 4.5 mg/mL, the “change on storage (XRPD)” value [2, 10] was “no significant changes” and the “change on storage (XRPD)” value ([2]; 2 months at 25° C./94% RH) was “converted to a hydrate of bendamustine hydrochloride (Form 2)”. The “change on storage (XRPD)” value ([2]; 3 weeks at 40° C./11% RH) was “no significant changes” and the “change on storage (XRPD)” value ([2]; one month at 25° C./94% RH) was “in the process of converting to Form 2”.
For `Cl.Cn1c(CCCC(=O)O)nc2cc(N(CCCl)CCCl)ccc21` [Form 2, bendamustine hydrochloride], the “change in crystallinity and purity during light stress test” value [4, 11] was “significant decrease in both crystallinity and purity”, the XRPD [4, 12] was “No change” and the “Purity (%)” value ([4]; blank wrapped in foil, 1 week in light box, listed as Form 2 blank, hydrochloride) was 95.6%. The “Purity (%)” value [4, 13] was 68.7%, the XRPD [4, 13] was “Less crystalline (sample brown in colour)” and the purity after storage [5] was “No large purity decreases”. The “kinetic stability on storage” value [5] was “kinetically stable”, the “conversion of Form 2 to Form 1 on storage” value ([5]; after 6 weeks) was “No conversion of Form 2 to Form 1” and the “uptake during GVS analysis” value ([1]; between 10 and 15% RH, equating to 1 mole of water) was 4%. The “solid form by XRPD re-analysis” value [1] was “partial conversion occurred”, the “change on storage (XRPD)” value ([2]; one month at 40° C./11% RH) was “became less crystalline” and the “change on storage (XRPD)” value ([2]; one month at 40° C./75% RH) was “no significant changes”.
For `Cl.Cn1c(CCCC(=O)O)nc2cc(N(CCCl)CCCl)ccc21` [Form 3, bendamustine hydrochloride], the “change on storage (XRPD)” value ([2]; 1 month under ambient conditions) was “No significant changes” and the “change on storage (XRPD)” value [2, 10] was “conversion to Form 2”.
For `Cl.Cn1c(CCCC(=O)O)nc2cc(N(CCCl)CCCl)ccc21` [Form 4, bendamustine hydrochloride], the change on storage ([2]; hydrochloride) was “converted to Form 2”.
